ChEMBL document CHEMBL1143544, “The role of QSAR in dopamine interactions” (Bioorg Med Chem Lett, 2005)

How the values were obtained:
[1] = biological target: Sodium-dependent dopamine transporter (Homo sapiens, UniProt Q01959); assay: Ability of compound to inhibit dopamine uptake of receptor was determined; details: read-out: Log 1/Ki (converted)
[2] = Binding affinity towards dopamine receptor D4 was determined; set-up: species or system Homo sapiens
[3] = Binding affinity towards dopamine receptor D3 was determined; set-up: species or system Homo sapiens
[4] = Binding affinity towards dopamine receptor D2 was determined; set-up: species or system Homo sapiens
[5] = Binding affinity of compound towards dopamine receptor D3 was determined; set-up: species or system Homo sapiens
[6] = Binding affinity of compound towards dopamine receptor D2 was determined; set-up: species or system Homo sapiens
[7] = Binding affinity to displace [3H]spiperone from dopamine receptor D2 was determined; set-up: species or system Homo sapiens
D(2) dopamine receptor = D(2) dopamine receptor (Homo sapiens, UniProt P14416)
Chain of D(2) dopamine receptor (P14416 whole entry): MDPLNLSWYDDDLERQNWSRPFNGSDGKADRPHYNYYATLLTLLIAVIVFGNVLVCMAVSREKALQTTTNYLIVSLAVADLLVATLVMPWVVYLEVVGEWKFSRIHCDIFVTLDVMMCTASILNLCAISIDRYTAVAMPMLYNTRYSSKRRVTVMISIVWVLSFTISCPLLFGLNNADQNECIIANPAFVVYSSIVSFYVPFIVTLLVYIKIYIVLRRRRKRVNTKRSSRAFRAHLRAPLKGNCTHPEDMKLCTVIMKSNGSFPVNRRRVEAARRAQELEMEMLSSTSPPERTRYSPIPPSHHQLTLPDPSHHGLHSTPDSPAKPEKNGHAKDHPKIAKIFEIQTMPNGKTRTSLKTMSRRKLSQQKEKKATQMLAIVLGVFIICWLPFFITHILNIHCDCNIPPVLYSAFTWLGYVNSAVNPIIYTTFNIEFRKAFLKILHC
Description: Binding affinity towards human dopamine receptor D2 was determined by using [3H]spiperone as radioligand

D(4) dopamine receptor = biological target: T1, D(4) dopamine receptor (Homo sapiens, UniProt P21917); assay: biochemical
T1 sequence (P21917 whole entry): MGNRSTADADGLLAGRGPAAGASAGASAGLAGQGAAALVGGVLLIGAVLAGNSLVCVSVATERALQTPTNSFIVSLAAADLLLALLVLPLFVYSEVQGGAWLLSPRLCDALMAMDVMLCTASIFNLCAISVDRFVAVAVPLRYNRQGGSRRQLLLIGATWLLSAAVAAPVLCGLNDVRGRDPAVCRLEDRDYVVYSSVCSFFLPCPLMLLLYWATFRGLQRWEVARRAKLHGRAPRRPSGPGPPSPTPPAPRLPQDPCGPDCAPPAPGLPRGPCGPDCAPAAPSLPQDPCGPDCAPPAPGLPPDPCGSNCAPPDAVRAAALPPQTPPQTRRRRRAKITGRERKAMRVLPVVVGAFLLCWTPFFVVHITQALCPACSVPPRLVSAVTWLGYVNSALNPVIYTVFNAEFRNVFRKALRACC
Description: Binding affinity towards human dopamine receptor D4 expressed in CHO cells was determined by using [3H]thymidine as radioligand

Chain of Sodium-dependent dopamine transporter (Q01959 whole entry): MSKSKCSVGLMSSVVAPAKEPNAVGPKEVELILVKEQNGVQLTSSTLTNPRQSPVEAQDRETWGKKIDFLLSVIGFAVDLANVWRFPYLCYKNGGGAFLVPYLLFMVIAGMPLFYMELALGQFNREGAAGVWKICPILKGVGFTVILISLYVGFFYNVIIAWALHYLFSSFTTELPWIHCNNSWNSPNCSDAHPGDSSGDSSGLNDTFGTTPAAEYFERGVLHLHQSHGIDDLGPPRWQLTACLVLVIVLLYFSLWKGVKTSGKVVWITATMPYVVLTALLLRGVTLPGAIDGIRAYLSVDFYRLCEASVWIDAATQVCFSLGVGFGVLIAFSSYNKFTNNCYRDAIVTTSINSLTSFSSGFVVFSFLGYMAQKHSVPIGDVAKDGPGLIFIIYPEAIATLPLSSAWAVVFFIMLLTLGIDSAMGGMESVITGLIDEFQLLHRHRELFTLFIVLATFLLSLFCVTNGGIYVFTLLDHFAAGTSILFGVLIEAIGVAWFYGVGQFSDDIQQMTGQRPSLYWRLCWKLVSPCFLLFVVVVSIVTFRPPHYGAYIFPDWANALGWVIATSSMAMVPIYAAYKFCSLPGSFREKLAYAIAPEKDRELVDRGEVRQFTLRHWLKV

Fc1ccc(C(OC2CC3CCC(C2)N3CCCOc2ccccc2)c2ccc(F)cc2)cc1 (stereo not given)
Ki [1]: 0.229 µM

O=C(NCCN1C2CCC1CC(OC(c1ccc(F)cc1)c1ccc(F)cc1)C2)c1cccnc1 (stereo not given)
Ki [1]: 0.0141 µM

O=C(NCCN1C2CCC1CC(OC(c1ccc(F)cc1)c1ccc(F)cc1)C2)c1ccccc1 (stereo not given)
Ki [1]: 0.00646 µM

Fc1ccc(C(OC2CC3CCC(C2)N3CCOCCN2CCOCC2)c2ccc(F)cc2)cc1 (stereo not given)
Ki [1]: 0.661 µM

O=C(CCCN1CCC(c2ccc(Cl)cc2)CC1)c1ccc(F)cc1
Log 1/Ki [2]: 7.59 | Log 1/Ki [3]: 7.34 | Log 1/Ki [4]: 7.81

O=C(CCCN1CCC(CO)(c2ccc(Cl)cc2)CC1)c1ccc(F)cc1
Log 1/Ki [2]: 7.11 | Log 1/Ki [3]: 6.96 | Log 1/Ki [4]: 7.81

O=C(CCCN1CCC(CO)(c2ccc(Cl)cc2)C1)c1ccc(F)cc1 (stereo not given)
Log 1/Ki [2]: 7.62 | Log 1/Ki [3]: 6.78 | Log 1/Ki [4]: 7.36

CN1CCN(C2=Cn3c(/C=N/O)ccc3Sc3ccccc32)CC1
Log 1/Ki [5]: 5.37

Cn1c(=O)c2c(nc3nc(NCCCN4CCN(c5cccc(Cl)c5)CC4)ccn32)n(C)c1=O
Log 1/Ki [6]: 7.03

Cc1ccc(CC2(O)CCN(CCCC(=O)c3ccc(F)cc3)CC2)cc1
Log 1/Ki [2]: 7.23 | Log 1/Ki [3]: 8.05 | Log 1/Ki [4]: 8.1

Cn1c(=O)c2c(nc3nc(NCCCN4CCN(c5ccccc5)CC4)ccn32)n(C)c1=O
Log 1/Ki [6]: 6.37

CCCc1cc(OC)c(OC)c(C(=O)NCC2CCCN2CC)c1O (stereo not given)
Log 1/Ki [7]: 8.89

Cn1c2c(c(=O)n(C)c1=O)N1CC(Br)=C(NCCN3CCN(c4ccccc4)CC3)NC1N2 (stereo not given)
Log 1/Ki [6]: 5.9

COc1ccccc1N1CCN(CCCNc2nc3nc4c(c(=O)n(C)c(=O)n4C)n3cc2Br)CC1
Log 1/Ki [6]: 6.49

COc1ccccc1N1CCN(CCNC2=CCN3c4c(n(C)c(=O)n(C)c4=O)NC3N2)CC1 (stereo not given)
Log 1/Ki [6]: 5.88

Cn1c2c(c(=O)n(C)c1=O)N1CC(Br)=C(NCCN3CCN(c4cccc(Cl)c4)CC3)NC1N2 (stereo not given)
Log 1/Ki [6]: 6.78

Cn1c(=O)c2c(nc3nc(NCCCN4CCN(c5ccccc5)CC4)c(Br)cn32)n(C)c1=O
Log 1/Ki [6]: 6.38

CN(CCCC(=O)c1ccc(F)cc1)CCC(O)c1ccc(Cl)cc1 (stereo not given)
Log 1/Ki [2]: 6.72 | Log 1/Ki [3]: 6.79 | Log 1/Ki [4]: 7.58

CCN1CCCC1CNC(=O)c1cc(CCCF)cc(OC)c1OC (stereo not given)
Log 1/Ki [7]: 8.36

CCN1CCCC1CNC(=O)c1cc(CCF)cc(OC)c1OC (stereo not given)
Log 1/Ki [7]: 8.28

CCN1CCCC1CNC(=O)c1c(O)c(CCCF)cc(OC)c1OC (stereo not given)
Log 1/Ki [7]: 9.1

Cn1c(=O)c2c(nc3nc(NCCCN4CCN(c5cccc(Cl)c5)CC4)c(Br)cn32)n(C)c1=O
Log 1/Ki [6]: 6.58

COc1ccccc1N1CCN(CCNC2=C(Br)CN3c4c(n(C)c(=O)n(C)c4=O)NC3N2)CC1 (stereo not given)
Log 1/Ki [6]: 6.65

CCCc1cc(OC)c(OC)c(C(=O)NCC2CCCN2CC)c1 (stereo not given)
Log 1/Ki [7]: 8.16

COc1ccccc1N1CCN(CCCCNC(=O)c2ccc(-c3ccc(C(C)=O)cc3)cc2)CC1
Log Ki [3]: -9.5

O=C(NCN1CCN(c2ccccc2Cl)CC1)c1cccc(Cl)c1
Ki (D(2) dopamine receptor): 0.363 µM

COc1ccccc1N1CCN(CNC(=O)c2cccc(C)c2)CC1
Ki (D(2) dopamine receptor): 2.45 µM | Ki (D(4) dopamine receptor): 0.0129 µM

O=C(NCN1CCN(c2ccccc2Cl)CC1)c1ccc(Cl)cc1
Ki (D(2) dopamine receptor): 0.0661 µM | Ki (D(4) dopamine receptor): 0.00832 µM

Cc1cccc(C(=O)NCN2CCN(c3ccccc3Cl)CC2)c1
Ki (D(2) dopamine receptor): 0.468 µM | Ki (D(4) dopamine receptor): 0.0158 µM

O=C(NCN1CCN(c2ccccc2Cl)CC1)c1ccccc1
Ki (D(2) dopamine receptor): 0.178 µM | Ki (D(4) dopamine receptor): 0.107 µM

Cc1ccc(C(=O)NCN2CCN(c3ccccc3C#N)CC2)cc1
Ki (D(2) dopamine receptor): 0.38 µM | Ki (D(4) dopamine receptor): 0.0012 µM

O=C(CCN1[C@@H]2CC[C@H]1C[C@@H](OC(c1ccc(F)cc1)c1ccc(F)cc1)C2)Nc1ccccc1
Ki [1]: 0.00501 µM

NCCN1[C@@H]2CC[C@H]1C[C@@H](OC(c1ccc(F)cc1)c1ccc(F)cc1)C2
Ki [1]: 0.0257 µM

CCN1CCCC1CNC(=O)c1cc(Br)cc(OC)c1OC (stereo not given)
Log 1/Ki [7]: 9.12

Fc1ccc(C(OC2CC3CCC(C2)N3CCNCc2ccccc2)c2ccc(F)cc2)cc1 (stereo not given)
Ki [1]: 0.00813 µM

Fc1ccc(C(OC2CC3CCC(C2)N3CCOCc2ccccc2)c2ccc(F)cc2)cc1 (stereo not given)
Ki [1]: 0.0224 µM

OCCOCCN1C2CCC1CC(OC(c1ccc(F)cc1)c1ccc(F)cc1)C2 (stereo not given)
Ki [1]: 0.049 µM

Fc1ccc(C(OC2CC3CCC(C2)N3CCOCc2cccs2)c2ccc(F)cc2)cc1 (stereo not given)
Ki [1]: 0.0186 µM

O=C(CCCN1CCC(CCO)(c2ccc(Cl)cc2)C1)c1ccc(F)cc1 (stereo not given)
Log 1/Ki [2]: 6.71 | Log 1/Ki [3]: 7.49 | Log 1/Ki [4]: 7.64

Cn1c2c(c(=O)n(C)c1=O)N1CC=C(NCCN3CCN(c4cccc(Cl)c4)CC3)NC1N2 (stereo not given)
Log 1/Ki [6]: 6.74

CCN1CCCC1CNC(=O)c1c(O)c(CCF)cc(OC)c1OC (stereo not given)
Log 1/Ki [7]: 9.11

N#Cc1ccccc1N1CCN(CNC(=O)c2ccccc2)CC1
Ki (D(2) dopamine receptor): 3.02 µM | Ki (D(4) dopamine receptor): 0.024 µM

COc1ccccc1N1CCN(CCCCNC(=O)c2ccc(-c3ccc(S(C)(=O)=O)cc3)cc2)CC1
Log Ki [3]: -9.5

COc1ccccc1N1CCN(CCCNc2ccn3c(n2)nc2c3c(=O)n(C)c(=O)n2C)CC1
Log 1/Ki [6]: 5.93

COc1ccccc1N1CCN(CNC(=O)c2ccccc2)CC1
Ki (D(2) dopamine receptor): 2.45 µM | Ki (D(4) dopamine receptor): 0.0309 µM

COc1ccccc1N1CCN(CNC(=O)c2cccc(Cl)c2)CC1
Ki (D(2) dopamine receptor): 1.45 µM

COc1ccccc1N1CCN(CNC(=O)c2ccc(Cl)cc2)CC1
Ki (D(2) dopamine receptor): 0.269 µM | Ki (D(4) dopamine receptor): 0.00347 µM

N#Cc1ccccc1N1CCN(CNC(=O)c2cccc(Cl)c2)CC1
Ki (D(2) dopamine receptor): 2.29 µM | Ki (D(4) dopamine receptor): 0.00525 µM

N#Cc1ccccc1N1CCN(CNC(=O)c2ccc(Cl)cc2)CC1
Ki (D(2) dopamine receptor): 0.603 µM | Ki (D(4) dopamine receptor): 0.00389 µM

COc1ccccc1N1CCN(CNC(=O)c2ccc(C)cc2)CC1
Ki (D(2) dopamine receptor): 0.174 µM | Ki (D(4) dopamine receptor): 0.00339 µM

Cc1ccc(C(=O)NCN2CCN(c3ccccc3Cl)CC2)cc1
Ki (D(2) dopamine receptor): 0.049 µM | Ki (D(4) dopamine receptor): 0.219 µM

COc1ccc(OC)c(N2CCN(CCCCNC(=O)c3ccc(Br)cc3)CC2)c1
Log Ki [3]: -8.5

O=C(NCCCCN1CCN(c2ccccc2)CC1)c1ccc(Br)cc1
Log Ki [3]: -8.2

COc1ccccc1N1CCN(CCCCNC(=O)c2ccc(Br)cc2)CC1
Log Ki [3]: -9.3

COc1ccccc1N1CCN(CCCCNC(=O)c2ccc(-c3ccc(N)cc3)cc2)CC1
Log Ki [3]: -9.7

CCN1CCCC1CNC(=O)c1cccc(OC)c1OC (stereo not given)
Log 1/Ki [7]: 7.18
